In ChEMBL document CHEMBL1201862, “PubChem BioAssay data set” (2004):
The source made the active and inactive calls.

Columns and labels:
[1] = target: T1, Melanocortin receptor 4 (Homo sapiens, UniProt P32245); assay: inhibitors of MC4R cAMP signaling – cell-based, TR-FRET, biased antagonists, dose response (AID 602298); format: functional;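 also: antagonist potency against agonist-stimulated cAMP production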
[2] = cAMP pathway inhibition in counterscreen cell line – TR-FRET cAMP detection, counter-screen for MC4R biased antagonist project, dose response (AID 602305); format: functional, cell-based;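 also: U2OS cells stimulated with forskolin near its EC80 as the cAMP inducer; potency is for inhibition of forskolin-stimulated cAMP signaling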
[3] = target: T2, Sentrin-specific protease 8 (Homo sapiens, UniProt Q96LD8); assay: inhibition of human SENP8 cleavage activity – biochemical, luminescence, SAR follow-up (AID 504501); format: functional
T2 sequence (Q96LD8 whole entry): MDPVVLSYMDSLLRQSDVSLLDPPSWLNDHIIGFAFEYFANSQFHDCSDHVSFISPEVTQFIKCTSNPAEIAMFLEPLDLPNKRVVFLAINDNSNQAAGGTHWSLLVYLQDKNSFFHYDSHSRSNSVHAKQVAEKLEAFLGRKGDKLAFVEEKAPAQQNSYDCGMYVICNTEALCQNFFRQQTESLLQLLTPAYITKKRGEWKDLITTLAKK

[4] = target: T3, Caspase-3 (Homo sapiens, UniProt P42574); assay: SAR Analysis of small molecule inhibitors of Sentrin-specific proteases (SENPs) using a Caspase-3 Selectivity assay. [Related pubchem assays (depositor defined):AID2540, AID2599, AID434973, AID489001]; format: functional
T3 sequence (P42574 whole entry): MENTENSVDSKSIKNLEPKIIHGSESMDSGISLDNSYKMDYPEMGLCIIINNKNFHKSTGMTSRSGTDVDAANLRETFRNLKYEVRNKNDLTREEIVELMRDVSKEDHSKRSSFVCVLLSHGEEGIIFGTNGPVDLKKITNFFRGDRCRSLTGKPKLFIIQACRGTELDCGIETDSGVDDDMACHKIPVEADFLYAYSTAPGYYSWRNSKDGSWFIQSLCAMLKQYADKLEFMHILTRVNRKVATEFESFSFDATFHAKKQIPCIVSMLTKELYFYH

[5] = target: T4, Sentrin-specific protease 6 (Homo sapiens, UniProt Q9GZR1); assay: SAR Analysis of small molecule inhibitors of Sentrin-specific protease 6 (SENP6) using a Luminescent assay. [Related pubchem assays (depositor defined):AID2582, AID2599]; format: functional
T4 sequence (Q9GZR1 whole entry): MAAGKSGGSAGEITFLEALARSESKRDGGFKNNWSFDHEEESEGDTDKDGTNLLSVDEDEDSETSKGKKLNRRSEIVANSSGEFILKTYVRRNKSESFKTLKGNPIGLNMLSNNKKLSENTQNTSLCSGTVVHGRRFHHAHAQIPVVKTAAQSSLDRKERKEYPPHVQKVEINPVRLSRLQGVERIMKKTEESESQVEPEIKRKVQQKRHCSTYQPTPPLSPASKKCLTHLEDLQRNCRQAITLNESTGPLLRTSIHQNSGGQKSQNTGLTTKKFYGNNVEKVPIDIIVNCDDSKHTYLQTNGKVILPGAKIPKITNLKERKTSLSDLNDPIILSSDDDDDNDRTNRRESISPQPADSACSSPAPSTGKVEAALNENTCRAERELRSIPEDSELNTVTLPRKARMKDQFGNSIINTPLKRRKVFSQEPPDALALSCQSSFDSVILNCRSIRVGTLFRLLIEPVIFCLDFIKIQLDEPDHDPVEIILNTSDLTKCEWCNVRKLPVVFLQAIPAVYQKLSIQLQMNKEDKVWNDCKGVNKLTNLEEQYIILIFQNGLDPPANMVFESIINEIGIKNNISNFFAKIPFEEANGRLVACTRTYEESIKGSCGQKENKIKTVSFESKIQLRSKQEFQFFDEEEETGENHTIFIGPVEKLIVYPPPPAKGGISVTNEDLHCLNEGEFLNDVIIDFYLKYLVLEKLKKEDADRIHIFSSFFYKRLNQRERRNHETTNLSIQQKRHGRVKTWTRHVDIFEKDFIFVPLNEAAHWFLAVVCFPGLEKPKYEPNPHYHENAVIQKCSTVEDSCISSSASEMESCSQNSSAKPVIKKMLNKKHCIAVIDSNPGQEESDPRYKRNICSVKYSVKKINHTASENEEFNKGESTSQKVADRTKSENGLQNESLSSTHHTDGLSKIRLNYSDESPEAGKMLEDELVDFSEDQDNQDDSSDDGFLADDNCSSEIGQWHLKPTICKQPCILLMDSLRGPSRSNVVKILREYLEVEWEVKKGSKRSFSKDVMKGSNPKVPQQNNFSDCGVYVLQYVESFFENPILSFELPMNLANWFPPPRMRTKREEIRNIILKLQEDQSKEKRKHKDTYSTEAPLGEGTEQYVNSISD

[6] = target: T5, Sentrin-specific protease 7 (Homo sapiens, UniProt Q9BQF6); assay: inhibition of human SENP7 cleavage activity – biochemical, luminescence, SAR follow-up (AID 504497); format: functional
T5 sequence (Q9BQF6 whole entry): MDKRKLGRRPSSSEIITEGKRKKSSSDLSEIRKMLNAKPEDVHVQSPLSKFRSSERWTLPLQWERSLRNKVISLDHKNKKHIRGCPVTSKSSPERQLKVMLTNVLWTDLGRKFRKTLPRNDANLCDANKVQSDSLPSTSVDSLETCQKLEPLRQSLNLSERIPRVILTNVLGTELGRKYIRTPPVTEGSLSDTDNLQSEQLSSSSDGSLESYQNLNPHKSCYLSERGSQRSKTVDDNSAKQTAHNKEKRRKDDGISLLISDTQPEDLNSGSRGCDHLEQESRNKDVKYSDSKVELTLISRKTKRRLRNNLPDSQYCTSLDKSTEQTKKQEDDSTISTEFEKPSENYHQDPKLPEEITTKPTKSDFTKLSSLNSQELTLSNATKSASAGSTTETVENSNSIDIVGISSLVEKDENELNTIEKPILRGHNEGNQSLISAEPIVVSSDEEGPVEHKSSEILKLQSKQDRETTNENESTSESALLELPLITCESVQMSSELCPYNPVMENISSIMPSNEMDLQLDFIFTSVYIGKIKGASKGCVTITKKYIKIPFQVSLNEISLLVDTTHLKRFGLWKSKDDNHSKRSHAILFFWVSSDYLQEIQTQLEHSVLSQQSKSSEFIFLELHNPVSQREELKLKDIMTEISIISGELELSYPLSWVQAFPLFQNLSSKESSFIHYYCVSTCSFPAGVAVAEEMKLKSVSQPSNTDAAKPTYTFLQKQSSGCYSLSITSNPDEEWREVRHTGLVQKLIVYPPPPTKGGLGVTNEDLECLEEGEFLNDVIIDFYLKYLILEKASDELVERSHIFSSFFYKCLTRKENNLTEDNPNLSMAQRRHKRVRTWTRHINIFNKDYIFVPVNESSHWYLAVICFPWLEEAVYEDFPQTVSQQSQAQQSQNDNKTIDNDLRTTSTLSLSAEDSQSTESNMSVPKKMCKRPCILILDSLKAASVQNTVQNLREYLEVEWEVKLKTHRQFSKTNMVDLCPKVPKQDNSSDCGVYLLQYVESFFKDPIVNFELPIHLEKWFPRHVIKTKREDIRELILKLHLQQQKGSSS

[7] = NIH-3T3 fibroblast cytotoxicity, dose response, cytotoxicity control, cell-based, fluorescence, Alamar Blue, secondary assay (AID 2327); format: functional;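 also: NIH-3T3 mouse fibroblasts cultured with fluconazole at 8 µg/mL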
[8] = target: Beta-galactosidase (Escherichia coli, UniProt Q8VNN2); assay: PubChem AID 485352; format: functional
Chain of Beta-galactosidase (Q8VNN2 whole entry): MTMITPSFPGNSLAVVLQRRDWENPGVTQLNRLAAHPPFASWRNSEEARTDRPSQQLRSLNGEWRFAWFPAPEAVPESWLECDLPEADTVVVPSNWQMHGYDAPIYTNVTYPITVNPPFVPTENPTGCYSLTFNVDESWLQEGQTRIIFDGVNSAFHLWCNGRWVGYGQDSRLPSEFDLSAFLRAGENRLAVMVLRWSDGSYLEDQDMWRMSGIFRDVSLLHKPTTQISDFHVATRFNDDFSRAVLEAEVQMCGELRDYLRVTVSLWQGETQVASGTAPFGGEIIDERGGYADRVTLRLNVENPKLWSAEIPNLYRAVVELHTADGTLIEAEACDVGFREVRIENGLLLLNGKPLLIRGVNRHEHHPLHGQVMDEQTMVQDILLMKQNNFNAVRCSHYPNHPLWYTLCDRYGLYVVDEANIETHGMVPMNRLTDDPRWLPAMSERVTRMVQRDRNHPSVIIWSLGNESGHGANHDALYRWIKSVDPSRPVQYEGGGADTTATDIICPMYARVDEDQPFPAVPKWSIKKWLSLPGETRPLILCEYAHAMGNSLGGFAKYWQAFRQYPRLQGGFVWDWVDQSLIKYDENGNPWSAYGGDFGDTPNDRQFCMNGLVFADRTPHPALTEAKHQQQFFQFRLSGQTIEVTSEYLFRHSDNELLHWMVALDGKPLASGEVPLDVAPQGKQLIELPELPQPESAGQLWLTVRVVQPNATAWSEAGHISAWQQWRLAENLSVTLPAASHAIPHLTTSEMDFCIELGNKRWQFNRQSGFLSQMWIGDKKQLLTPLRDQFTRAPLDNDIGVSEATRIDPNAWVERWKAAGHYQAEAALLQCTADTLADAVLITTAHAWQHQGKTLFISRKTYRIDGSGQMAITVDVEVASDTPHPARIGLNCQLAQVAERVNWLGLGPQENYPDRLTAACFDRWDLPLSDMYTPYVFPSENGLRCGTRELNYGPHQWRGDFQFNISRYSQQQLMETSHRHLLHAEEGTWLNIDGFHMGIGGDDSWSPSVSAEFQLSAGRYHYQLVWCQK

[9] = fluconazole-exposed Candida albicans growth modulators – fluorescence, retest, confirmation (AID 2467); format: functional, cell-based
[10] = Trypanosoma cruzi growth suppression in host cells – NIH3T3 host cells, beta-gal luminescence, confirmation (AID 2044); format: functional, cell-based;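 also: intracellular parasites grown in NIH/3T3 mouse fibroblasts as host cells; luminescent beta-galactosidase reporter signal from transgenic T. cruzi replicating inside host cells; inhibitors lower the luminescence signal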
[11] = target: T6, Type-1 angiotensin II receptor (Homo sapiens, UniProt P30556); assay: antagonism of angiotensin II type 1 receptor – cell-based, uHTS hits, selectivity assay for APJ receptor antagonist project, dose response (AID 463214); format: functional;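 also: antagonist potency against angiotensin II stimulated AT1 response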
T6 sequence (P30556 whole entry): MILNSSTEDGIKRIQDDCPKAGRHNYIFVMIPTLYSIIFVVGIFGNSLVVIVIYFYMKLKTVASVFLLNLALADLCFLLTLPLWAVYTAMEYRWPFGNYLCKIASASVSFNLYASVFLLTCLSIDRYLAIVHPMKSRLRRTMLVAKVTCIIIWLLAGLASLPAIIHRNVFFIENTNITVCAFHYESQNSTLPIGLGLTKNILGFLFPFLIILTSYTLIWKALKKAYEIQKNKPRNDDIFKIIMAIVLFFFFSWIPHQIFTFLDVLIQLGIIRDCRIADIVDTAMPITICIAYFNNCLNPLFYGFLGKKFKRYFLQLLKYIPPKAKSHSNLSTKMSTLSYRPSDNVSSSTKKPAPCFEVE

[12] = NIH3T3 cell viability loss – ATP luminescence, mouse fibroblasts, counter-screen, dose response (AID 2010); format: functional, cell-based;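 also: cells exposed to compound for about 90 hours before reading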
[13] = Luminescence Cell-Based Dose Response HTS to Identify Inhibitors of 5'UTR Stem-Loop Driven Prion Protein mRNA Translation in H4 Neuroglioblastoma Cells. [Related pubchem assays: 1827 (Project Summary), 1813 (Primary HTS)]; format: functional
[14] = alpha-synuclein stem-loop luciferase translation blockers – H4 neuroglioma cells, luminescence, confirmation (AID 1988); format: functional, cell-based
[15] = microbe, parasite or virus in culture; format: functional; settings: Mycobacterium tuberculosis
[16] = viability of PTEN-deleted HCT116 cells – cell-based, HCT116 PTEN knockout, dose response (AID 1047); format: functional;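 also: HCT116 colon tumor cells with PTEN knocked out; cells exposed to compound for 60 hours before readout; potency for loss of cell viability measured by luminescence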
[17] = viability of HCT116 lacking mutant beta-catenin – cell-based, human colon tumor, dose response (AID 1045); format: functional;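 also: HCT116 colon tumor cells with beta catenin knocked out; cells exposed to compound for 60 hours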
[18] = target: T7, Ubiquitin-conjugating enzyme E2 N (Homo sapiens, UniProt P61088); format: functional;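 also: Dose-response confirmation in a TR-FRET assay detecting UBC13-driven polyubiquitin chain formation, inhibition measured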
T7 sequence (P61088 whole entry): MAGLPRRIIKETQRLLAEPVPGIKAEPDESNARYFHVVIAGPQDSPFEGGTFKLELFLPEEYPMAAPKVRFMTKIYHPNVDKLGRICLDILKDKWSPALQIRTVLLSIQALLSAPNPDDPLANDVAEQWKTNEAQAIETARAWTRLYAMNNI

[19] = target: T1, Melanocortin receptor 4; format: functional, cell-based
[20] = tested on: HEK293; assay: cells; format: functional, cell-based; settings: Homo sapiens
[21] = target: T8, Nuclear receptor subfamily 0 group B member 1 (Homo sapiens, UniProt P51843); assay: Luminescence-based cell-based high throughput dose response assay for inhibitors of the orphan nuclear receptor subfamily 0, group B, member 1 (DAX1; NR0B1). [Related pubchem assays (depositor defined):AID504766, AID504790]; format: functional
T8 sequence (P51843 whole entry): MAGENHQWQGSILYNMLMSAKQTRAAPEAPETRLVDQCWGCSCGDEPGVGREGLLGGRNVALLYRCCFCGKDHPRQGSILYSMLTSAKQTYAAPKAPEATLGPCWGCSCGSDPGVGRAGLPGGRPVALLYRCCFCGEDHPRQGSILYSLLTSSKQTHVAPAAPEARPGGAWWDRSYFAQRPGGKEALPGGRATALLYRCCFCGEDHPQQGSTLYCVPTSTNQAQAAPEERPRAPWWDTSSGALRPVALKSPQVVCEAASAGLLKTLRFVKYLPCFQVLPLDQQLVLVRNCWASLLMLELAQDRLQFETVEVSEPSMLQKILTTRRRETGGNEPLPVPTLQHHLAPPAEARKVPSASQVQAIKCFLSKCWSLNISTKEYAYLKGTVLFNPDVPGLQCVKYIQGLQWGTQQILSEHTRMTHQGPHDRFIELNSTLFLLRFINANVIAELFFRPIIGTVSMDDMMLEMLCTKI

[22] = viability of uninfected HEp-2 cells – cell-based, HTS, cytotoxicity control for RSV inhibitor project, dose response (AID 2410); format: functional; settings: human respiratory syncytial virus

T1 sequence (P32245 whole entry): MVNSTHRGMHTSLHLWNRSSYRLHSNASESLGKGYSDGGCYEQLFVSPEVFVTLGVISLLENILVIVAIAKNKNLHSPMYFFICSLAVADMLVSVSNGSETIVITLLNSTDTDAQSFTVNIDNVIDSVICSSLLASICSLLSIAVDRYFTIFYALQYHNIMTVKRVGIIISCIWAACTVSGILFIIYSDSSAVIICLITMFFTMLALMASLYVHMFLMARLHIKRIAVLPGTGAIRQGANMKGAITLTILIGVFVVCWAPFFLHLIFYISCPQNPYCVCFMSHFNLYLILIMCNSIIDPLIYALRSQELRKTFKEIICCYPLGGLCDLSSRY

COC(=O)c1ccc(C2c3[nH]c4ccccc4c3C[C@H]3C(=O)N(C4CCN(Cc5ccccc5)CC4)CC(=O)N23)cc1 (some centres undefined)
IC50 [1]: > 64.6 µM (inactive)
IC50 [2]: > 64.6 µM (inactive)

Cc1cc(Cl)ccc1NC(=O)c1ccc2c(c1)OCO2
IC50 [3]: > 99 µM (inactive)
IC50 [4]: 28.1 µM (active)
IC50 [5]: > 99 µM (inactive)
IC50 [6]: 34.6 µM (active)

CCCCCC1CCC(c2nnc(S)n2C)CC1 (centres undefined)
EC50 [7]: > 150 µM (inactive)
EC50 [8]: > 40 µM (inactive)
EC50 [9]: > 38 µM (not active)
EC50 [10]: 1.92 µM (active)
IC50 [11]: > 40 µM (not active)
EC50 [12]: > 60 µM (not active)

CN(C)CCCNC(=O)c1ccc(-c2nc(-c3ccc(Cl)cc3)cs2)cc1
EC50 [7]: 44.4 µM (inconclusive)
EC50 [13]: > 120 µM (not active)
EC50 [8]: > 40 µM (inactive)
EC50 [14]: 9.67 µM (inconclusive)
EC50 [9]: 3.33 µM (active)
EC50 [10]: 0.738 µM (active)
CC50 [15]: 4.08 µM (active)
IC50 [11]: 22.6 µM (not active)
EC50 [16]: 2.41 µM (active)
EC50 [12]: 10.2 µM (active)
EC50 [17]: 2.25 µM (active)
IC50 [18]: > 20 µM (inactive)
EC50 [19]: > 9.91 µM (active)

O=C(Cc1ccccc1)NCC(=O)OCC(=O)c1ccc(Cl)c([N+](=O)[O-])c1
EC50 [8]: > 40 µM (inactive)
IC50 [11]: 9.37 µM (active)

CC1CCCN(c2nc(-c3cccnc3)nc3scc(-c4ccccc4)c23)C1 (centres undefined)
IC50 [1]: > 64.6 µM (inactive)
IC50 [2]: > 64.6 µM (inactive)

O=C(c1ccccc1)c1cnc(-c2ccccc2)s1
IC50 [20]: > 67.6 µM (inactive)
IC50 [21]: > 67.6 µM (inactive)

NC(=O)CSc1nnc(-c2ccc(O)cc2)n1Cc1ccco1
IC50 [20]: > 67.6 µM (inactive)
IC50 [21]: > 67.6 µM (inactive)

Brc1ccc(-c2csc(N3CCOCC3)n2)cc1
IC50 [20]: > 67.5 µM (inactive)
IC50 [21]: > 67.5 µM (inactive)

COc1ccc(-c2nc3ncccn3c2Br)cc1
CC50 [22]: 39.3 µM (active)
IC50 [20]: > 67.6 µM (inactive)
IC50 [21]: > 67.6 µM (inactive)

Oc1nnc(/C=C/c2ccc(F)cc2)o1
IC50 [3]: > 99 µM (inactive)
IC50 [4]: > 99 µM (inactive)
IC50 [5]: > 99 µM (inactive)
IC50 [6]: > 99 µM (inactive)

COc1ccccc1NC(=O)CCC(=O)OCC(=O)c1ccc(C)c([N+](=O)[O-])c1
EC50 [8]: > 40 µM (inactive)
IC50 [11]: 33.7 µM (not active)
